This is an account of results in ChEMBL document CHEMBL5352388 (Eur J Med Chem, 2022).

Active and inactive are the calls of the source. The calls are words filed in the database; no cut-off is given here. A value given as a limit tells only on which side of the number the result lay.

In one data set the test system is HeLa. Nature of the data set: Antiproliferative activity against human HeLa cells assessed as inhibition of cell growth incubated for 72 hrs by CCK-8 assay. Type of data set: functional, cell-based. For orientation: Tetrazolium dyes change colour on reduction, which living cells bring about.
Data set [1] is described as follows: Half life in human liver microsomes measured upto 60 mins in presence of NADPH by LC/MS/MS analysis. Type of data set: ADME, Microsome. (Microsomes from liver hold many membrane-bound enzymes, among them those of drug oxidation.)
Data set [2] is described as follows: Intrinsic clearance in human liver microsomes measured upto 60 mins in presence of NADPH by LC/MS/MS analysis. The format is ADME, Microsome. The conditions noted are these: read-out: CLH.
Data set [3] in a line: Intrinsic clearance in human liver measured upto 60 mins in presence of NADPH by LC/MS/MS analysis. The format is ADME, tissue-based. The conditions noted are these: read-out: CLH.
The next data set has as its target T1, CYP1A2 (Homo sapiens, UniProt P05177).
T1 sequence (P05177 whole entry): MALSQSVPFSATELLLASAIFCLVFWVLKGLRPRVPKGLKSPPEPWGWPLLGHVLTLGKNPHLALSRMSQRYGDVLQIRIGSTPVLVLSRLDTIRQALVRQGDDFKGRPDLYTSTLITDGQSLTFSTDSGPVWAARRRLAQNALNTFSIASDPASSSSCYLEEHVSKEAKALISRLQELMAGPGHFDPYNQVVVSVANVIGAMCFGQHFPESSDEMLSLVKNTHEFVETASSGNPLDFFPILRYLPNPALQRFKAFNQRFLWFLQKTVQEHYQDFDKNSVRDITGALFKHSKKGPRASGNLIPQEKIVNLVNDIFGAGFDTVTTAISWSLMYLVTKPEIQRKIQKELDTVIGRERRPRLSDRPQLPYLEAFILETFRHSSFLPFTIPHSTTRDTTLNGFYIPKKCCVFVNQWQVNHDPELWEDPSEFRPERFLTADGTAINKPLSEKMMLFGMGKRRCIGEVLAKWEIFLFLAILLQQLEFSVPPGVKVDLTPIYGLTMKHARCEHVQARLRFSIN
Briefly: Inhibition of CYP1A2 (unknown origin) at 10 uM incubated for 20 mins in presence of NADPH by LC/MS/MS analysis relative to control. The format is ADME.

Another data set deals with CYP2C9 (Homo sapiens, UniProt P11712). Nature of the data set: Inhibition of CYP2C9 (unknown origin) at 10 uM incubated for 20 mins in presence of NADPH by LC/MS/MS analysis relative to control. The format is ADME.
Another data set deals with CYP2C19 (Homo sapiens, UniProt P33261). Briefly: Inhibition of CYP2C19 (unknown origin) at 10 uM incubated for 20 mins in presence of NADPH by LC/MS/MS analysis relative to control. The format is ADME.
The target of another data set is CYP2D6 (Homo sapiens, UniProt P10635). Nature of the data set: Inhibition of CYP2D6 (unknown origin) at 10 uM incubated for 20 mins in presence of NADPH by LC/MS/MS analysis relative to control. The format is ADME.
A further data set addresses CYP3A4 (Homo sapiens, UniProt P08684). Briefly: Inhibition of CYP3A4 (unknown origin) at 10 uM incubated for 20 mins in presence of NADPH by LC/MS/MS analysis relative to control. The format is ADME.
The target of data set [4] is Voltage-gated inwardly rectifying potassium channel KCNH2 (Homo sapiens, UniProt Q12809). Nature of the data set: Inhibition of human ERG stably expressed in CHO cells by patch clamp assay. Type of data set: toxicity, cell-based. A general note: In patch-clamp work, channel activity is measured electrically.
Data set [5] relates to A549. Nature of the data set: Induction of apoptosis in human A549 cells at 4 uM incubated for 48 hrs by Annexin V-FITC/PI staining based flow cytometry method. The format is functional.
Data set [6] relates to A549. Nature of the data set: Antitumor activity against human A549 cells xenografted in BALB/c mouse assessed as reduction in tumor growth at 10 mg/kg,ip administrated for 15 days. Type of data set: functional, organism-based. The conditions noted are these: time 15.0 day.
The nature of data set [7]: Toxicity in BALB/c mouse xenografted with human A549 cells assessed as change in body weight at 10 mg/kg,ip administrated for 15 days. Type of data set: organism-based. The conditions noted are these: in vivo, 360 h, time 15 day.
In data set [8] the target is T2, Amine oxidase [flavin-containing] A (Homo sapiens, UniProt P21397).
T2 sequence (P21397 whole entry): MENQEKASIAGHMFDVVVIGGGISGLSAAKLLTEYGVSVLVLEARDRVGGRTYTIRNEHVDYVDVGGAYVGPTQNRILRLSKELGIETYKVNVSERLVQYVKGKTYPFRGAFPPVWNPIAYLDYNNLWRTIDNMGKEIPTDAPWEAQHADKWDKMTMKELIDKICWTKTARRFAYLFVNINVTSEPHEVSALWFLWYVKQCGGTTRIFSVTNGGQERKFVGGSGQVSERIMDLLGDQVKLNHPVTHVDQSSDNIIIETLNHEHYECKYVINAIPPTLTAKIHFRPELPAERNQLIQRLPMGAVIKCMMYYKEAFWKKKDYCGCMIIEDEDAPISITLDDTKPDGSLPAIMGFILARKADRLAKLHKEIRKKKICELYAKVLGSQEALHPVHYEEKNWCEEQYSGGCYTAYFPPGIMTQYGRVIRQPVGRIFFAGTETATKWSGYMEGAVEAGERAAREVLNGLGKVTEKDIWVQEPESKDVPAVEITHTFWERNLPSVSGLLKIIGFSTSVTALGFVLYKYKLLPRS
Description: Inhibition of recombinant MAO-A (unknown origin) incubated for 60 mins by luminescence based flow cytometry

For data set [9], the target named is T3, Amine oxidase [flavin-containing] B (Homo sapiens, UniProt P27338).
T3 sequence (P27338 whole entry): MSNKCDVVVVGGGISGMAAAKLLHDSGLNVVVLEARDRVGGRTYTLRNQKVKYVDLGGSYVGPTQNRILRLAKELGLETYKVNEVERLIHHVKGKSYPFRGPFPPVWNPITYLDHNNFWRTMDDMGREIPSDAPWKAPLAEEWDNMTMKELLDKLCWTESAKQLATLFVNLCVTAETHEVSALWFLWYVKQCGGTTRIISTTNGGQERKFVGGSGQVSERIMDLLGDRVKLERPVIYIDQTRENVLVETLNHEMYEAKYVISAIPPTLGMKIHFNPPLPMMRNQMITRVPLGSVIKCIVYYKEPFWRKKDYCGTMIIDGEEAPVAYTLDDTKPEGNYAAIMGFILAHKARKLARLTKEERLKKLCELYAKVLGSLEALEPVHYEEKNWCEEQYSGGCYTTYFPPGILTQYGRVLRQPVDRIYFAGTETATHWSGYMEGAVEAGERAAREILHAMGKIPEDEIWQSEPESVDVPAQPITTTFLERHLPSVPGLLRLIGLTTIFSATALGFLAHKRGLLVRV
Description: Inhibition of recombinant MAO-B (unknown origin) incubated for 60 mins by luminescence based flow cytometry

Data set [10] relates to A549. Nature of the data set: cells. The note with it: Homo sapiens, A549, 72 h.
Description: Antiproliferative activity against human A549 cells assessed as inhibition of cell growth incubated for 72 hrs by CCK-8 assay
The test system of a further data set is NCI-H460. Nature of the data set: cells. The note with it: Homo sapiens, NCI-H460, 72 h.
The subject of a further data set is MCF7. Nature of the data set: cells. The note with it: Homo sapiens, MCF7, 72 h.
The subject of the next data set is MGC-803. Briefly: cells. The note with it: Homo sapiens, MGC-803, 72 h.
The nature of a further data set: in vitro. The note with it: human, THLE-2 cells.

The IC50 is the concentration that inhibits the measured activity by half. By half-life is commonly meant how long it takes for the measured level to halve. For orientation: inhibition means the change of the read-out against control, counted positive when it falls.

CYP2D6, sequence (P10635 whole entry): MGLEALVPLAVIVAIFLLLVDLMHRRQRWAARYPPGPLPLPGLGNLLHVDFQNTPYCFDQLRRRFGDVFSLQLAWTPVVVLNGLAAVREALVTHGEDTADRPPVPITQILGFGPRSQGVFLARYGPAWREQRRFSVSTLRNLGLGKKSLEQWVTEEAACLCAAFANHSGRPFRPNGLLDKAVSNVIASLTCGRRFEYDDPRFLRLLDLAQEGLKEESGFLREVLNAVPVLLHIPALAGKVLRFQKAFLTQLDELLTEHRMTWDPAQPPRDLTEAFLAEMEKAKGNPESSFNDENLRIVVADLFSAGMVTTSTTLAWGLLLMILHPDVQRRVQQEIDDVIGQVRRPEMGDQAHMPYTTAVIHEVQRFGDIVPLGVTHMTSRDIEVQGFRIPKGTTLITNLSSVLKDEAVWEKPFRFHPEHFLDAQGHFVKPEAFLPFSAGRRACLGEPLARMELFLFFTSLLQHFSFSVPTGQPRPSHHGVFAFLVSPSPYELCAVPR
CYP3A4, sequence (P08684 whole entry): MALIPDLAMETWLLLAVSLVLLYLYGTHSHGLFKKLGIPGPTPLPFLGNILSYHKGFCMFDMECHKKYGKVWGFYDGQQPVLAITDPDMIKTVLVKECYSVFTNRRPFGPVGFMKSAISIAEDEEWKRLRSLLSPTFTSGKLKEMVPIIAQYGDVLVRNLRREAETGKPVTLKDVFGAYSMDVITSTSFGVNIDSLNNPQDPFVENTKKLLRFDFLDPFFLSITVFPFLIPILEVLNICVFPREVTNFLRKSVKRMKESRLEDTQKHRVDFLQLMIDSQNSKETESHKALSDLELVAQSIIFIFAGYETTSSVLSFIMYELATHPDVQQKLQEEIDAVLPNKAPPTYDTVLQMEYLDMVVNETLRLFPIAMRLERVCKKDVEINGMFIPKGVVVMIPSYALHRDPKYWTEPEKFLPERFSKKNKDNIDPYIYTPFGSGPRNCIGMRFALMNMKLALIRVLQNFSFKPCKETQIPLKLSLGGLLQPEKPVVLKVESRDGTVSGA
CYP2C9, sequence (P11712 whole entry): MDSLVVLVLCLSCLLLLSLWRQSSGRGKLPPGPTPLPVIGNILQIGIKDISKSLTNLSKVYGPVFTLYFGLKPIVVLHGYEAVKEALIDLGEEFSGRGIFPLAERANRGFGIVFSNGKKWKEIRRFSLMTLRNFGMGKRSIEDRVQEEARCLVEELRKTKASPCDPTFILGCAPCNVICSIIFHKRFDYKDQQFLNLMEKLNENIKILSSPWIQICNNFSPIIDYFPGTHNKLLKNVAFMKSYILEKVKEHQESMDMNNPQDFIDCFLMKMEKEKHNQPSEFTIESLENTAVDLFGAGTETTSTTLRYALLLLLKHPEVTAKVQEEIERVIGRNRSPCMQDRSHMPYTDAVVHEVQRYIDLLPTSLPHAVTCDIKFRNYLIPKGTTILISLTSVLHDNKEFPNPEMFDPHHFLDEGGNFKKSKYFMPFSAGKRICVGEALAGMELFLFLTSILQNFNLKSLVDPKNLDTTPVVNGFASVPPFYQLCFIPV
CYP2C19, sequence (P33261 whole entry): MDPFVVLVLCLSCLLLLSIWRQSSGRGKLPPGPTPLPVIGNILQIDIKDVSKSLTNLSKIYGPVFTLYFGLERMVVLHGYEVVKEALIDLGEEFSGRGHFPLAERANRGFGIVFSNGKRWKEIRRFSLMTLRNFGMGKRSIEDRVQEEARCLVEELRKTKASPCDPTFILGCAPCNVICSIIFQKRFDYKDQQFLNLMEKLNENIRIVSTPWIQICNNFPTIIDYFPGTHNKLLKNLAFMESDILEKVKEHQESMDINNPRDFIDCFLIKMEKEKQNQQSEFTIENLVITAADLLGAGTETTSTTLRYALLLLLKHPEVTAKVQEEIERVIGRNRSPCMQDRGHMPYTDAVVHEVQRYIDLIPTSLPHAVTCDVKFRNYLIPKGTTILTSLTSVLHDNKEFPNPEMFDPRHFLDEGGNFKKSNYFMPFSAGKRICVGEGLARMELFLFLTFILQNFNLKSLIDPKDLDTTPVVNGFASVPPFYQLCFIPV
Voltage-gated inwardly rectifying potassium channel KCNH2, sequence (Q12809 whole entry): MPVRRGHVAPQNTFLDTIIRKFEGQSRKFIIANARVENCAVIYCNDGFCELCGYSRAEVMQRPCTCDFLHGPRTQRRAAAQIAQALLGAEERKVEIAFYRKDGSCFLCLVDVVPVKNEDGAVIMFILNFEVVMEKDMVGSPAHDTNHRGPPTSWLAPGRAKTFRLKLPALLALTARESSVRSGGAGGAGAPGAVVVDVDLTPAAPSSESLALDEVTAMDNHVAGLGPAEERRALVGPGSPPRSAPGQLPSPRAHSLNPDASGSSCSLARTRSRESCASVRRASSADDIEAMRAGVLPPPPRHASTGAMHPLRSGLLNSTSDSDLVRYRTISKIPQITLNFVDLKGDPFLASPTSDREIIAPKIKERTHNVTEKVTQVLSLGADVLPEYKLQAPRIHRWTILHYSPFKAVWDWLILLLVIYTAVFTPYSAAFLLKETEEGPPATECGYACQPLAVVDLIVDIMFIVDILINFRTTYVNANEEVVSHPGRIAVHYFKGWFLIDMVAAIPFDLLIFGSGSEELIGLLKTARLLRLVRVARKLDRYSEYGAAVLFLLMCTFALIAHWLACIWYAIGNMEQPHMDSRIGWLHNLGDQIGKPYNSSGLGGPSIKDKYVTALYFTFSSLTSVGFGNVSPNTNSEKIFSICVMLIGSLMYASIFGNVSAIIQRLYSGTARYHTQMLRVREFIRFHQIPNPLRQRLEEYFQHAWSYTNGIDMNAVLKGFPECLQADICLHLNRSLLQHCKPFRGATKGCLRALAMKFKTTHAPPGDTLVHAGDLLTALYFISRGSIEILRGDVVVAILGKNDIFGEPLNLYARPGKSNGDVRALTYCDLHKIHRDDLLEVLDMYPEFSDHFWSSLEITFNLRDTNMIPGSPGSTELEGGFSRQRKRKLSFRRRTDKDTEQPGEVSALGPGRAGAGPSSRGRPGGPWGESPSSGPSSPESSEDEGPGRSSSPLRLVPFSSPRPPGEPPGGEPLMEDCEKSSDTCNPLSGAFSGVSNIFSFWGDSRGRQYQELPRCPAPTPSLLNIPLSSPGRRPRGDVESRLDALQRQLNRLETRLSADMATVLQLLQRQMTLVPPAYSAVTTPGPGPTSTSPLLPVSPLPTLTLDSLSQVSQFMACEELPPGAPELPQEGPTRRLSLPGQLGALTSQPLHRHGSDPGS
Description for MCF7: Antiproliferative activity against human MCF7 cells assessed as inhibition of cell growth incubated for 72 hrs by CCK-8 assay
Description for MGC-803: Antiproliferative activity against human MGC-803 cells assessed as inhibition of cell growth incubated for 72 hrs by CCK-8 assay
Description for NCI-H460: Antiproliferative activity against human NCI-H460 cells assessed as inhibition of cell growth incubated for 72 hrs by CCK-8 assay
Description for in vitro: Antiproliferative activity against human THLE-2 cells assessed as inhibition of cell growth incubated for 72 hrs by CCK-8 assay

Regarding `Cc1ccc(-c2cc3occ(CN4CCC[C@H](N)C4)c3cc2-c2ccc(C#N)cc2)cc1`, the IC50 in the data set on HeLa is 10.2 µM; in [4], 6.06 µM; in data set [8], > 20 µM; in [9] it was > 20 µM; in the data set with A549 [10], 3.6 µM; with NCI-H460 it was 4.8 µM. Further, the IC50 with MCF7 was 10.5 µM; in the data set with MGC-803, 11.5 µM. Moreover, the half-life in [1] stood at 56.6 min. In [2], the microsomal CLint amounted to 24.5 µL/min/mg. The CLint scaled in [3] is 22.1 mL/min/kg. Further, the inhibition at 20 min, 10 µM at CYP1A2 stood at 4.9%; on CYP2C9 it was 3.6%; on CYP2C19 it was 10.5%; on CYP2D6, 88.6%; on CYP3A4 it was 19%. Further, the Activity in the data set on A549 [5] is on record as 20.94%; in [7], “Non-Toxic”. Also, the outcome in the data set with A549 [6] was Active. Besides, the IC50 at 72 h in “in vitro” was found to be 5.7 µM.
